Experimental data reported in article PMC6131557, “Selective Cytotoxicity of Dihydroorotate Dehydrogenase Inhibitors to Human Cancer Cells Under Hypoxia and Nutrient-Deprived Conditions” (Frontiers in Pharmacology, 2018).
Like-named read-outs stand apart in the source and are kept apart here.

Legend:
Complex II–III = assay: Succinate-cytochrome c reductase (complexes II–III) activity, bovine mitochondria; assay type: biochemical
Method: (§1) Recombinant human DHODH was purified, crystallized, and assayed as previously described ([Inaoka et al., 2016]) without modification. Bovine mitochondrial fractions were prepared as previously described ([Kita et al., 1988]) and NADH dehydrogenase (complex I), succinate:quinone reductase (complex II), quinol oxidase (complexes III–IV), NADH-cytochrome c reductase (complexes I–III), and succinate-cytochrome c (complexes II–III) activities were assayed following an established method ([Takamiya et al., 1986]; [Miyadera et al., 2001]; [Matsumoto et al., 2008]; [Kido et al., 2010]; [Nihashi et al., 2017]).

SNB-78 = assay: 39-cancer cell panel assay: SNB-78; assay type: cell-based; conditions: Homo sapiens, CNS
DU-145 = assay: 39-cancer cell panel assay: DU-145; assay type: cell-based; conditions: Homo sapiens, Pro
MKN7 = assay: 39-cancer cell panel assay: MKN7; assay type: cell-based; conditions: Homo sapiens, MKN-7, St
DMS273 = assay: 39-cancer cell panel assay: DMS273; assay type: cell-based; conditions: Homo sapiens, DMS-273, Lu
HBC-4 = assay: 39-cancer cell panel assay: HBC-4; assay type: cell-based; conditions: Homo sapiens, HBC4, Br
MKN1 = assay: 39-cancer cell panel assay: MKN1; assay type: cell-based; conditions: Homo sapiens, MKN-1, St
Complex II = biological target: T1, Complex II (Bos taurus, UniProt P35720+Q3T189+Q95123); assay: Succinate:quinone reductase (complex II) activity, bovine mitochondria; assay type: biochemical
T1 construct: from tissue; host or cells: bovine mitochondrial fraction / sub-mitochondrial particles
T1 sequence (P31039 45-665 partner limits assumed): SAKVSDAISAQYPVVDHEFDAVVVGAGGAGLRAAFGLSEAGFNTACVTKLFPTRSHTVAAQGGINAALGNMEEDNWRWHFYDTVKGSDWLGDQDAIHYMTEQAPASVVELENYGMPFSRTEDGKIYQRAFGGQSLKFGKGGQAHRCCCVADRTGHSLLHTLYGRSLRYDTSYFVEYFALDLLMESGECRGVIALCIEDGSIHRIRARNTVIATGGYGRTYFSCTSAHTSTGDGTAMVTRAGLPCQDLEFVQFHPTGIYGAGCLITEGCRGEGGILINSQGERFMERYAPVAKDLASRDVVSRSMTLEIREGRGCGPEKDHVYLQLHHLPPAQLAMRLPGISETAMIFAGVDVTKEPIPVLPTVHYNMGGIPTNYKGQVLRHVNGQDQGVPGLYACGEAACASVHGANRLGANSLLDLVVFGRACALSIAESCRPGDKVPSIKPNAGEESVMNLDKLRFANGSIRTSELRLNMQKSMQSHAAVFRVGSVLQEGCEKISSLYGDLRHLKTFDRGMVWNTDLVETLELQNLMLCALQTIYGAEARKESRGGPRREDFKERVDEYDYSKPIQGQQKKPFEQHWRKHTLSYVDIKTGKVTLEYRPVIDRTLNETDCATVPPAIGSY
T1 sequence (Q3T189 29-280): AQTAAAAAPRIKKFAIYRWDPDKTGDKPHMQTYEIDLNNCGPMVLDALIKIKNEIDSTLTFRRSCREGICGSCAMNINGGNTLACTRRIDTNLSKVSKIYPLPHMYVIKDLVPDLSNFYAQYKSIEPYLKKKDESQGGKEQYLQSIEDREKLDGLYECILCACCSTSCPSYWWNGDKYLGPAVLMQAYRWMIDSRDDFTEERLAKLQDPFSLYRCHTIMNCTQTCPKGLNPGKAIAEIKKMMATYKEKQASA
T1 sequence (P35720 30-169): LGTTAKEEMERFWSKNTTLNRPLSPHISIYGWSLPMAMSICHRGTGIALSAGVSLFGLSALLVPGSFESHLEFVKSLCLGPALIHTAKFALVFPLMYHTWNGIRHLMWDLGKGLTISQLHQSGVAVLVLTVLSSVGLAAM
T1 sequence (Q95123 56-158): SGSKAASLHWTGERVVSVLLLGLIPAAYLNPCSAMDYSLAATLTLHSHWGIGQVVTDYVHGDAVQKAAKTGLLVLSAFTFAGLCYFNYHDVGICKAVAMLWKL

NCI-H226 = assay: 39-cancer cell panel assay: NCI-H226; assay type: cell-based; conditions: Homo sapiens, Lu
U251 = assay: 39-cancer cell panel assay: U251; assay type: cell-based; conditions: Homo sapiens, U-251, CNS
MDA-MB-231 = assay: 39-cancer cell panel assay: MDA-MB-231; assay type: cell-based; conditions: Homo sapiens, Br
Complex I = assay: NADH dehydrogenase (complex I) activity, bovine mitochondria; assay type: biochemical; conditions: at 5 μM
Method: as §1

BSY-1 = assay: 39-cancer cell panel assay: BSY-1; assay type: cell-based; conditions: Homo sapiens, Br
NCI-H522 = assay: 39-cancer cell panel assay: NCI-H522; assay type: cell-based; conditions: Homo sapiens, Lu
DMS114 = assay: 39-cancer cell panel assay: DMS114; assay type: cell-based; conditions: Homo sapiens, DMS-114, Lu
HBC-5 = assay: 39-cancer cell panel assay: HBC-5; assay type: cell-based; conditions: Homo sapiens, HBC5, Br
SF-268 = assay: 39-cancer cell panel assay: SF-268; assay type: cell-based; conditions: Homo sapiens, CNS
PC-3 = assay: 39-cancer cell panel assay: PC-3; assay type: cell-based; conditions: Homo sapiens, Pro
MCF-7 = assay: 39-cancer cell panel assay: MCF-7; assay type: cell-based; conditions: Homo sapiens, MCF7, Br
MKN45 = assay: 39-cancer cell panel assay: MKN45; assay type: cell-based; conditions: Homo sapiens, MKN-45, St
OVCAR-5 = assay: 39-cancer cell panel assay: OVCAR-5; assay type: cell-based; conditions: Homo sapiens, Ov
OVCAR-4 = assay: 39-cancer cell panel assay: OVCAR-4; assay type: cell-based; conditions: Homo sapiens, Ov
HCC2998 = assay: 39-cancer cell panel assay: HCC2998; assay type: cell-based; conditions: Homo sapiens, HCC 2998, Co
SNB-75 = assay: 39-cancer cell panel assay: SNB-75; assay type: cell-based; conditions: Homo sapiens, CNS
OVCAR-3 = assay: 39-cancer cell panel assay: OVCAR-3; assay type: cell-based; conditions: Homo sapiens, Ov
St-4 = assay: 39-cancer cell panel assay: St-4; assay type: cell-based; conditions: Homo sapiens
SK-OV-3 = assay: 39-cancer cell panel assay: SK-OV-3; assay type: cell-based; conditions: Homo sapiens
HDF cells = assay: Cytotoxicity assay (Cell Counting Kit-8 / WST-8) on HDF cells; assay type: cell-based; conditions: Homo sapiens
Method: (§2) For hypoxia and nutrient-deprived culture conditions, cells were incubated under 1% oxygen in glucose and glutamine-free DMEM (Gibco) without FBS.
(§3) DLD-1 or HDF cells were seeded at 2.5 × 10^4 cells/well on a 96-well plate with normal medium, and cultured overnight under normal culture condition. The cells were washed with PBS and the medium was replaced to either normal medium or glucose and glutamine-free DMEM without FBS. Test compounds or DMSO as a control were added to the wells. The cells in normal medium were cultured under normal culture conditions, while cells in nutrient-deprived medium were cultured under hypoxia condition. After 24 or 48 h incubation, the cells were washed with PBS, 100 μl of fresh normal medium, and 10 μl of Cell Counting Kit-8 solution (Donjindo, Japan) was added to each well. After 3 h incubation under normal culture condition, the absorbance was measured at 450 nm using SpectraMax M2e-TUY microplate reader (Molecular Devices). Cell viability of test wells was calculated based on absorbance of control wells containing DMSO according to manufacturer’s protocol.

SF-539 = assay: 39-cancer cell panel assay: SF-539; assay type: cell-based; conditions: Homo sapiens, CNS
Complexes I–III = assay: NADH-cytochrome c reductase (complexes I–III) activity, bovine mitochondria; assay type: biochemical
Method: as §1

HT-29 = assay: 39-cancer cell panel assay: HT-29; assay type: cell-based; conditions: Homo sapiens, Co
DLD-1 cells = assay: Cytotoxicity assay (Cell Counting Kit-8 / WST-8) on DLD-1 cells; assay type: cell-based, human; conditions: Homo sapiens
Method: as §2, §3

LOX-IMVI = assay: 39-cancer cell panel assay: LOX-IMVI; assay type: cell-based; conditions: Homo sapiens, Me
HCT-116 = assay: 39-cancer cell panel assay: HCT-116; assay type: cell-based; conditions: Homo sapiens, Co
OVCAR-8 = assay: 39-cancer cell panel assay: OVCAR-8; assay type: cell-based; conditions: Homo sapiens, Ov
KM-12 = assay: 39-cancer cell panel assay: KM-12; assay type: cell-based, human; conditions: Co
A549 = assay: 39-cancer cell panel assay: A549; assay type: cell-based; conditions: Homo sapiens, Lu
Complex III = biological target: T2, Complex III (Bos taurus, UniProt P00157); assay: Quinol oxidase (complex III) activity, bovine mitochondria; assay type: biochemical; conditions: ubiquinol oxidase activity
T2 construct: from tissue; host or cells: bovine mitochondrial fraction / sub-mitochondrial particles

NCI-H23 = assay: 39-cancer cell panel assay: NCI-H23; assay type: cell-based; conditions: Homo sapiens, Lu
MKN74 = assay: 39-cancer cell panel assay: MKN74; assay type: cell-based; conditions: Homo sapiens, MKN-74, St
[1] = biological target: T3, human dihydroorotate dehydrogenase (HsDHODH) (Homo sapiens, UniProt Q02127); assay: Inhibition of recombinant human DHODH enzyme activity; assay type: biochemical; conditions: for IC50: recombinant human DHODH
T3 construct: made in house
T3 sequence (Q02127 whole entry): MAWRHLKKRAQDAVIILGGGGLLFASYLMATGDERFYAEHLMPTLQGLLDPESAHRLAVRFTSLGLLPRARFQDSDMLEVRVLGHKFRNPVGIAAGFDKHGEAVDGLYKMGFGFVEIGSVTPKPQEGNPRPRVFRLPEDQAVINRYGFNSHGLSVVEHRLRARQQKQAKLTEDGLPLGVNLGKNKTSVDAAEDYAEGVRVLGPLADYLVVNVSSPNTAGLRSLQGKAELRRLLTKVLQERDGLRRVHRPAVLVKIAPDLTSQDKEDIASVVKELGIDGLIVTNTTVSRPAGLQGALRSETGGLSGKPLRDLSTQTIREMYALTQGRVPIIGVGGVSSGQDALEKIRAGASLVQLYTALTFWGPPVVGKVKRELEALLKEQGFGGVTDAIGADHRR

RXF-631L = assay: 39-cancer cell panel assay: RXF-631L; assay type: cell-based; conditions: Homo sapiens, Re
ACHN = assay: 39-cancer cell panel assay: ACHN; assay type: cell-based; conditions: Homo sapiens, Re
SF-295 = assay: 39-cancer cell panel assay: SF-295; assay type: cell-based; conditions: Homo sapiens, CNS
NCI-H460 = assay: 39-cancer cell panel assay: NCI-H460; assay type: cell-based; conditions: Homo sapiens, Lu
HCT-15 = assay: 39-cancer cell panel assay: HCT-15; assay type: cell-based; conditions: Homo sapiens, Co
MKN28 = assay: 39-cancer cell panel assay: MKN28; assay type: cell-based; conditions: Homo sapiens, MKN-28, St
mammalian complex III = tested on: mammalian complex III; set-up: method as in Berry et al., 2010; conditions: ref Berry et al., 2010; read-out: IC50 against mammalian complex III; cited from earlier work
[2] = purified enzyme fixed at 10 nM, read-out: IC50 (nM), inhibition of human DHODH

Which IC50 (Complex II–III) does the source give for `COC(=O)/C(C)=C/CC/C(C)=C/Cc1c(O)c(Cl)c(C)c(C=O)c1O` [Compound 9] here?
Its IC50 is 5.7 ± 0.37 µM.

What about the GI50 (SNB-78) of the same compound?
The GI50 was 8.8 µM.

And the GI50 (DU-145)?
Its GI50 is 10 µM.

And the GI50 (MKN7)?
The GI50 was 13 µM.

And the GI50 (DMS273)?
Its GI50 is 3 µM.

What about the GI50 (HBC-4) of the same compound?
Its GI50 is 5.6 µM.

And the GI50 (MKN1)?
Its GI50 is 14 µM.

What about the inhibition at 5 µM (Complex II) of the same compound?
Its inhibition at 5 µM is 5.3 ± 4.1%.

What about the GI50 (NCI-H226) of the same compound?
The GI50 was 13 µM.

And the GI50 (U251)?
The GI50 was 0.97 µM.

And the GI50 (MDA-MB-231)?
The GI50 was 14 µM.

And the “Inhibition (%) Complex I” value (Complex I)?
The value was 7.6 ± 4.2%.

What about the GI50 (BSY-1) of the same compound?
The GI50 was 27 µM.

What about the GI50 (NCI-H522) of the same compound?
Its GI50 is 5.3 µM.

And the GI50 (DMS114)?
The GI50 was 15 µM.

What about the GI50 (HBC-5) of the same compound?
The GI50 was 28 µM.

And the GI50 (SF-268)?
The GI50 was 8.1 µM.

What about the GI50 (PC-3) of the same compound?
The GI50 was 22 µM.

And the GI50 (MCF-7)?
Its GI50 is 7.3 µM.

And the GI50 (MKN45)?
The GI50 was 14 µM.

What about the GI50 (OVCAR-5) of the same compound?
The GI50 was 12 µM.

And the GI50 (OVCAR-4)?
Its GI50 is 11 µM.

What about the GI50 (HCC2998) of the same compound?
The GI50 was 17 µM.

What about the GI50 (SNB-75) of the same compound?
Its GI50 is 9.7 µM.

And the GI50 (OVCAR-3)?
Its GI50 is 5.3 µM.

And the GI50 (St-4)?
Its GI50 is 7.5 µM.

And the GI50 (SK-OV-3)?
Its GI50 is 11 µM.

What about the IC50 (HDF cells; read-out: IC50 (μM) HDF (24 h) Hypoxia nutrient (-), hypoxia (1% oxygen), nutrient (-)) of the same compound?
The IC50 was 3.1 ± 0.19 µM.

And the IC50 (HDF cells; read-out: IC50 (μM) HDF (24 h) Normoxia nutrient (+), normoxia, nutrient (+))?
Its IC50 is > 100 µM.

And the GI50 (SF-539)?
The GI50 was 0.54 µM.

What about the IC50 (Complexes I–III) of the same compound?
Its IC50 is 1 ± 0.02 µM.

What about the GI50 (HT-29) of the same compound?
The GI50 was 6.5 µM.

And the IC50 (DLD-1 cells; read-out: IC50 (μM) DLD-1 (24 h) Hypoxia nutrient (-), DLD-1, 24 h, hypoxia (1% oxygen), nutrient (-))?
The IC50 was 1.6 ± 0.42 µM.

And the IC50 (DLD-1 cells; read-out: IC50 (μM) DLD-1 (24 h) Normoxia nutrient (+), DLD-1, 24 h, normoxia, nutrient (+))?
Its IC50 is > 100 µM.

And the IC50 (DLD-1 cells; DLD-1, 48 h, hypoxia (1% oxygen), nutrient (-), read-out: IC50 (μM) DLD-1 (48 h) Hypoxia nutrient (-))?
Its IC50 is 0.67 ± 0.066 µM.

And the IC50 (DLD-1 cells; DLD-1, 48 h, normoxia, nutrient (+), read-out: IC50 (μM) DLD-1 (48 h) Normoxia nutrient (+))?
The IC50 was > 100 µM.

And the GI50 (LOX-IMVI)?
The GI50 was 2.1 µM.

What about the GI50 (HCT-116) of the same compound?
Its GI50 is 2.5 µM.

And the GI50 (OVCAR-8)?
The GI50 was 9.1 µM.

And the “GI50 (μM) KM-12” value (KM-12)?
Its value is 6.4 µM.

And the GI50 (A549)?
The GI50 was 4.7 µM.

And the inhibition at 5 µM (Complex III)?
Its inhibition at 5 µM is > 80%.

And the GI50 (NCI-H23)?
Its GI50 is 7.8 µM.

And the GI50 (MKN74)?
The GI50 was 14 µM.

What about the IC50 [1, 2] of the same compound?
Its IC50 is ~5 nM.

What about the GI50 (RXF-631L) of the same compound?
The GI50 was 8.4 µM.

And the GI50 (ACHN)?
The GI50 was 9.9 µM.

And the GI50 (SF-295)?
Its GI50 is 11 µM.

And the GI50 (NCI-H460)?
The GI50 was 4.3 µM.

What about the GI50 (HCT-15) of the same compound?
Its GI50 is 0.83 µM.

What about the GI50 (MKN28) of the same compound?
Its GI50 is 12 µM.

Which results are given for `CC(/C=C/[C@@]1(C)[C@H](C)CCC(=O)[C@@H]1C)=C\Cc1c(O)c(Cl)c(C)c(C=O)c1O` [Compound 10, Ascochlorin]?
IC50 (Complex II–III): 0.0069 ± 0.0002 µM; IC50 (mammalian complex III): 0.013 µM; inhibition at 5 µM (Complex II): 3.6 ± 8.5%; Inhibition (%) Complex I (Complex I): 6.8 ± 4.1%; IC50 (Complexes I–III): 0.0033 ± 0.0001 µM; inhibition at 5 µM (Complex III): 94 ± 2.4%; inhibition at 1 µM ([1]; at 1,000 nM, read-out: Inhibition of HsDHODH activity (value in parentheses)): 33%; IC50 ([1]; Table 6, read-out: IC50 (μM) HsDHODH): 2300 ± 1900 nM; IC50 [1, 2]: > 1000 nM
